Where “and” joins values, the source holds several entries; their conditions need not be identical. Identical values can stand only once.

The data set can be described thus: rat acute oral toxicity. To be noted: in vivo.
In turn, `CCOCn1c(-c2ccc(Cl)cc2)c(C#N)c(Br)c1C(F)(F)F` showed an LD50 of 560 mg/kg.

`O=C(O)c1ccc2cc(O)ccc2c1` gave a median lethal dose (LD50) of 947 mg/kg.

`CCC(C(c1ccc(Cl)cc1)c1ccc(Cl)cc1)[N+](=O)[O-]` (centres undefined) came in with an LD50 of 300 mg/kg.

Regarding `O=c1nc(O)n(Cl)c(=O)n1Cl`, the median lethal dose (LD50) came to 1670 mg/kg.

Compound `CC(C)C(=O)O` returned an LD50 of 266 mg/kg.

Compound `Oc1cc(Cl)ccc1Cl` returned an LD50 of 580 mg/kg.

For the compound `OCCc1ccccn1`, the median lethal dose (LD50) turned out to be 3840 mg/kg.

The compound `O=C(O)c1cc2ccccc2cc1O` gave an LD50 of 809 mg/kg. This LD50 lies about 4.7-fold lower than the previous one.

For the compound `CNC(=O)Oc1cccc2c1OC(C)(C)C2`, the LD50 was 5.15 mg/kg.

`CC(=O)C1=C(C)[C@@H]2C[C@@]3(C1)[C@H](C)CC[C@H]3C2(C)C`: the 50% lethal dose (LD50) came out at 4500 mg/kg. This LD50 lies about 870-fold higher than the previous one.

As for `CCCC(=NOCC)C1=C(O)CC(CC(C)SCC)CC1=O` (centres undefined), the LD50 turned out to be 2680 mg/kg.

`Nc1ncnc2c1ncn2C1CC(O)C(COP(=O)(O)OP(=O)(O)OP(=O)(O)O)O1` (centres undefined) returned a median lethal dose (LD50) of 6770 mg/kg. This LD50 lies about 2.5-fold higher than the previous one.

`CCO[Si](CCCSC#N)(OCC)OCC` returned a median lethal dose (LD50) of 986 mg/kg. Against the preceding compound, the LD50 is about 6.9-fold lower.

`CC(C)N(C(=O)CO)c1ccc(F)cc1` had an LD50 of 474 mg/kg.

The compound `CN(CC[C@H](N)CC(O)=N[C@H]1C=C[C@H](n2ccc(=N)nc2O)O[C@@H]1C(=O)O)C(=N)N` had an LD50 of 53.3 mg/kg.

Regarding `CN(C)CCCN1c2ccccc2Sc2ccc(Cl)cc21`, the LD50 was 142 mg/kg and 143 mg/kg.

Compound `Cc1ccc(N)cc1C` showed an LD50 of 810 mg/kg.

On to `c1ccc2ccccc2c1`, for which the LD50 turned out to be 2200 mg/kg.

Consider `CCCCN=C=O`, for which the LD50 worked out at 360 mg/kg. Compared with the last compound, the LD50 is about 6.1-fold lower.

With `Nc1ccccc1[N+](=O)[O-]`, the median lethal dose (LD50) turned out to be 1600 mg/kg.

Take `O=c1ccc(=O)[nH][nH]1`: the LD50 came to 3800 mg/kg.

In the case of `O=C=Nc1ccccc1`, the LD50 stood at 800 mg/kg.

As to `CCCCCCCCCC(=O)O`, the 50% lethal dose (LD50) worked out at 3320 mg/kg.

For `C#CC(C)(C)NC(=O)c1cc(Cl)cc(Cl)c1`, the LD50 was 3350 mg/kg.

The compound `ClC1(Cl)C2(Cl)C3(Cl)C4(Cl)C(Cl)(Cl)C5(Cl)C3(Cl)C1(Cl)C5(Cl)C24Cl` (centres undefined) gave an LD50 of 235 mg/kg.

In the case of `O=[N+]([O-])c1ccc(O)cc1`, the 50% lethal dose (LD50) came to 170 mg/kg.

Compound `O=C(Nc1ccc(Cl)c(Cl)c1)Nc1cc(Cl)ccc1Oc1ccc(Cl)cc1S(=O)(=O)O` yielded a median lethal dose (LD50) of 476 mg/kg.

`OC[C@@H](O)[C@H](O)[C@@H](O)CO` registered a median lethal dose (LD50) of 14100 mg/kg.

As to `O=[N+]([O-])c1ccc(Cl)c([N+](=O)[O-])c1`, the 50% lethal dose (LD50) was 640 mg/kg.

Take `C=C(C)C(=O)OCc1ccccc1`: the LD50 stood at 3980 mg/kg.

As for `CC(C)C(Nc1ccc(C(F)(F)F)cc1Cl)C(=O)OC(C#N)c1cccc(Oc2ccccc2)c1` (centres undefined), the LD50 was found to be 261 mg/kg. This LD50 is about 15-fold lower than that of the compound before.

`CCc1ccccc1`: the LD50 was 3500 mg/kg. This LD50 lies about 13-fold higher than the previous one.

With `CO[Si](CCCNCCN)(OC)OC`, the LD50 stood at 1900 mg/kg.

Take `CN(C)C(=O)Nc1ccccc1`: the LD50 was 6400 mg/kg.

Regarding `O=C(O)c1ccccc1O`, the median lethal dose (LD50) is 930 mg/kg and 891 mg/kg.

`CC(C)(c1ccc(O)cc1)c1ccc(O)cc1` showed an LD50 of 3250 mg/kg.

Take `CCCC=C(C=O)CC`: the LD50 turned out to be 3000 mg/kg.

Regarding `C1COCO1`, the LD50 stood at 3000 mg/kg.

Regarding `COc1c(Cl)ccc(Cl)c1C(=O)O`, the LD50 amounted to 757 mg/kg.

In the case of `c1cc[n+]2c(c1)-c1cccc[n+]1CC2`, the median lethal dose (LD50) was 220 mg/kg and 120 mg/kg.

The compound `CCNc1nc(Cl)nc(NC(C)(C)C)n1` displayed a 50% lethal dose (LD50) of 1500 mg/kg.

For the compound `CC(C)c1nn(C(=O)NC(C)(C)C)c(=O)n1N`, the LD50 came to 1020 mg/kg.

Consider `COP(=S)(OC)Oc1ccc(C#N)cc1`, for which the median lethal dose (LD50) was determined as 580 mg/kg.

Take `C=C(C)C(=O)OCCN=C=O`: the LD50 stood at 670 mg/kg.

In turn, `CN(C)CC/C=C1\c2ccccc2Sc2ccc(Cl)cc21` returned a 50% lethal dose (LD50) of 200 mg/kg.

In the case of `CC(=O)CC(C)C`, the median lethal dose (LD50) amounted to 2080 mg/kg.

As to `CC1=C(C)S(=O)(=O)CCS1(=O)=O`, the LD50 worked out at 500 mg/kg.

On to `S=c1sc2nc3ccccc3nc2s1`, for which the 50% lethal dose (LD50) was 1800 mg/kg.

Consider `CC1(C)[C@H](/C=C(\Cl)C(F)(F)F)[C@@H]1C(=O)O[C@H](C#N)c1cccc(Oc2ccccc2)c1`, for which the LD50 was 114 mg/kg.

`ClCc1ccccc1` gave an LD50 of 440 mg/kg.

For `CC1=C(C(=O)Nc2ccccc2)S(=O)(=O)CCO1`, the LD50 stood at 1630 mg/kg. Compared with the last compound, the LD50 is about 3.7-fold higher.

Regarding `CCC(CC)Nc1c([N+](=O)[O-])cc(C)c(C)c1[N+](=O)[O-]`, the 50% lethal dose (LD50) was 1050 mg/kg.

`CCc1cccc(CC)c1N` returned an LD50 of 1800 mg/kg.

As to `CCOC(=O)c1ccc(O)cc1`, the LD50 stood at 4300 mg/kg.

The compound `Clc1ccc(Cl)cc1` registered an LD50 of 500 mg/kg.

The compound `Cc1[nH]c(=O)n(C(C)(C)C)c(=O)c1Cl` returned an LD50 of 1700 mg/kg.

For `CC1=CC(C)(C)CC(=O)C1`, the median lethal dose (LD50) amounted to 1500 mg/kg.

On to `O=CC=Cc1ccccc1`, for which the LD50 came to 2200 mg/kg. The LD50 values of the last two compounds are within 1.5-fold of each other.

The compound `COC(=O)C(N)Cc1cnc[nH]1` (centres undefined) returned an LD50 of 1370 mg/kg. Against the preceding compound, the LD50 is about 1.6-fold lower.

In turn, `COC(=O)c1ccccc1` showed an LD50 of 1180 mg/kg.

With `Oc1c(Br)cc(Br)cc1Br`, the LD50 is 1490 mg/kg.

`CS` displayed a median lethal dose (LD50) of 116 mg/kg.

Compound `OCCCCCCO` came in with a median lethal dose (LD50) of 3000 mg/kg.

For the compound `Clc1ccc(C(Cl)(Cl)Cl)cc1Cl`, the 50% lethal dose (LD50) came to 1420 mg/kg.

`CC(C)=CC1C(C(=O)OCc2coc(Cc3ccccc3)c2)C1(C)C` (centres undefined) showed an LD50 of 1240 mg/kg.

For `COC(=O)C(C)Oc1ccc(Oc2ccc(Cl)cc2Cl)cc1` (centres undefined), the LD50 turned out to be 481 mg/kg. Compared with the last compound, the LD50 is about 2.6-fold lower.

Take `CCN(CC)N=O`: the 50% lethal dose (LD50) came out at 220 mg/kg.

As for `CCCCCCCCC=CCCCCCCCCOCCO`, the LD50 is 2700 mg/kg.

Compound `C=CCOC(C)=O` displayed a median lethal dose (LD50) of 130 mg/kg.

With `O=C1C=CC(=O)N1c1ccccc1`, the LD50 came to 128 mg/kg.

`O=c1oc2ccccc2c(O)c1C1CC(c2ccc(-c3ccccc3)cc2)Cc2ccccc21` (centres undefined) had a 50% lethal dose (LD50) of 0.925 mg/kg.

`COc1ccc(C(=O)c2ccccc2)c(O)c1` gave an LD50 of 7400 mg/kg.

`OCC1CO1` (centres undefined) gave an LD50 of 420 mg/kg.

For the compound `N=C(Nc1ccccc1)Nc1ccccc1`, the LD50 was found to be 107 mg/kg.

`CC=C1CC2C=CC1C2` (centres undefined): the LD50 turned out to be 2280 mg/kg. This LD50 lies about 21-fold higher than the previous one.

Regarding `O=[N+]([O-])c1ccc(Cl)cc1Cl`, the LD50 is 379 mg/kg. Compared with the last compound, the LD50 is about 6-fold lower.

As to `Nc1ccc(Cl)c(Cl)c1`, the LD50 worked out at 530 mg/kg.

For the compound `COP(=S)(OC)SCC(=O)N(C)C=O`, the LD50 came out at 218 mg/kg.

For `CCCC(C)C1(CC)C(=O)N=C(O)NC1=O` (centres undefined), the 50% lethal dose (LD50) is 52 mg/kg and 118 mg/kg.

`CNP(=O)(OC)Oc1ccc(C(C)(C)C)cc1Cl` (centres undefined): the 50% lethal dose (LD50) amounted to 460 mg/kg.

On to `CC(=O)OC(C)(C)C`, for which the 50% lethal dose (LD50) came to 4100 mg/kg.

`CC(C)CCCCCCCO` returned a median lethal dose (LD50) of 6400 mg/kg.

Turning to `CCCCOCCOC(C)=O`, the 50% lethal dose (LD50) worked out at 1880 mg/kg.

`Cc1ccc(Cl)cc1` gave an LD50 of 2100 mg/kg.

For `CC(=O)CC(=O)Nc1ccccc1Cl`, the 50% lethal dose (LD50) was 4040 mg/kg.

Regarding `CCc1nn(C)c(C(=O)NCc2ccc(C(C)(C)C)cc2)c1Cl`, the LD50 was 595 mg/kg.

`CC(C)=CCC/C(C)=C/CO` yielded a median lethal dose (LD50) of 3600 mg/kg. This LD50 is about 6.1-fold higher than that of the compound before.

Consider `CC(C)(C)CC(C)(C)N`, for which the median lethal dose (LD50) is 218 mg/kg.

In the case of `CCC(N)CO` (centres undefined), the LD50 amounted to 800 mg/kg.

In turn, `CCCNCCC` gave a median lethal dose (LD50) of 300 mg/kg.

For the compound `C=Cc1ccccc1`, the 50% lethal dose (LD50) amounted to 1000 mg/kg. This LD50 is about 3.3-fold higher than that of the compound before.

`Nc1ccc(Sc2ccc(N)cc2)cc1` registered an LD50 of 900 mg/kg.

`C#CCN1CC(=O)N(COC(=O)[C@@H]2[C@@H](C=C(C)C)C2(C)C)C1=O`: the LD50 was determined as 900 mg/kg.

Compound `CN=C=O` displayed a 50% lethal dose (LD50) of 51.5 mg/kg.

Turning to `C/C=C/C=O`, the LD50 was determined as 165 mg/kg.

Regarding `CC[N+](=O)[O-]`, the LD50 was 1080 mg/kg.

The compound `CCCNC(=O)NS(=O)(=O)c1ccc(Cl)cc1` showed an LD50 of 2150 mg/kg.

`O=Cc1ccc(-c2ccccc2)cc1` came in with an LD50 of 1000 mg/kg.

With `c1ccc(Oc2ccccc2)cc1`, the 50% lethal dose (LD50) amounted to 2450 mg/kg. Compared with the last compound, the LD50 is about 2.5-fold higher.

The values above are taken from the CATMoS acute toxicity set (Mansouri et al. 2021).
